What was measured:
[1] = Metabolic (liver microsomal) stability assay; conditions: human liver microsomes, 1 μM test compound
Experimental: The liver microsomal stability assay is used for early assessment of metabolic stability of a test compound in liver microsomes.
Liver microsomes were preincubated with test compound for 10 minutes at 37° C. in 100 mM potassium phosphate buffer, pH 7.4. The reactions were initiated by adding NADPH regenerating system. The final incubation mixtures contained 1 μM test compound, 0.5 mg/mL liver microsomal protein, 1 mM MgCl2, 1 mM NADP, 1 unit/mL isocitric dehydrogenase and 6 mM isocitric acid in 100 mM potassium phosphate buffer, pH 7.4. After incubation times of 0, 3, 6, 9, 15 and 30 minutes at 37° C., 300 μL of cold acetonitrile (including internal standard) was added to 100 μL incubation mixture to terminate the reaction. Following precipitation and centrifugation, the amount of compound remaining in the samples were determined by LC-MS/MS. Controls of no NADPH regenerating system at zero and 30 minutes were also prepared and analyzed.

STING (IFN-β in hPBMC) = experiment: hPBMC cytokine functional assay (IFN-β decrease after Baculovirus stimulation); assay type: cell-based; conditions: Homo sapiens, Baculovirus MOI 40, 24 hours, read-out: hPBMC_IC50
Experimental: The inhibition of STING by compounds could be measured by the decrease of IFN-β in hPBMC, which is stimulated by a double stranded DNA virus Baculoviurs (Purchased from Genescript, pCMV-Dest Vector virus generation P2 BV stock virus, Sf-900 II medium with 5% FBS, Lot C9835DK230-2/P4DL001). Frozen hPBMC cells (purchased from Stemcell Technologies, cat number is 70025, Lot 191070803C) were thawed at 37° C. water bath, then cells were re-suspended in 50 ml tube using 20 ml Cell culture medium, and then centrifuged for 5 min at 2000 rpm before the supernatant was removed carefully. The cells were re-suspended in culture medium (RPMI-1640 with 1.5 g/L NaHCO3, 4.5 g/L glucose, 10 mM HEPES and 1 mM Na-pyruvate, 10% HI-FBS); 65 μL of the cell suspension was dispensed into 384 well plate (70K cells/well) by Multidrop Combi with at least 3 hours incubation at 37° C., 5% CO2 cell incubator.
Then 4 μL of compound solution per well (final 0.5% DMSO) was transferred by Agilent Bravo followed by infection with 11 μL of Baculovirus at a final MOI of 40. The level of IFN-β secreted in the supernatant of hPBMC was determined after 24 hours of incubation at 37° C. cell incubator by human IFN-β HTRF assay (Cisbio, cat: 62HIFNBPEH) following the manufacture's instruction. CellTiter-Glo kit (Promega, cat: G7573) was applied for the cell viability evaluation using Envision.

[2] = molecular target: human stimulator of interferon genes (STING) (139-379) (Homo sapiens (Human), UniProt Q86WV6); experiment: Microliter plate-based TR-FRET competition-binding assay for binders of STING; conditions: Alexa488 probe, read-out: FRET_IC50
Experimental: This is the competition-binding assay to test the compounds' potency to the C-terminal Domain (CTD) and ligand-binding domain of human stimulator of interferon genes (STING). STING (139-379, Q86WV6, http://www.uniprot.org/uniprot) recombinant protein (in 20 mM Tris, 150 mM NaCl, pH 8.0, and expression in Escherichia coli (E. coli) BL21 (DE3)) with a C-terminal flag-tag was employed for the assay. When Alexa-488 labeled active site probe (refer to patent WO2017/175156 A1) bounds to STING (139-379), it accepts the 485 nm emission from Tb-M2-Flag-STING and results in an increase in fluorescence at 520 nm. Compounds that compete for the probe-binding site will reduce 520 nm signal. The assay was run in proxiplate-384 plus (PerkinElmer, cat: 60150300) containing of 2.5 nM STING, 2.5 nM M2-Tb (Cisbio, 61FG2TLA, Lot: 17 A) and 250 nM Alexa488 probe. Plates were centrifuged for 1 min at 1000 rpm, incubated for 30 min at room temperature, and then measured the dual fluorescence emission at 520 nm/485 nM following 320 nm laser excitation on an Envision plate reader (Perkin-Elmer). The compounds' effect on the STING binding is detected by measuring ratiometric fluorescence from time-resolved FRET. The percentage of inhibition of at each compound concentration is calculated on the basis of their changes of TR-FRET efficiency relative to the change of TR-FRET caused by positive control 2′3′cGAMP (Sigma, cat: SML1229).

Chain of human stimulator of interferon genes (STING) (139-379) (Q86WV6 139-379): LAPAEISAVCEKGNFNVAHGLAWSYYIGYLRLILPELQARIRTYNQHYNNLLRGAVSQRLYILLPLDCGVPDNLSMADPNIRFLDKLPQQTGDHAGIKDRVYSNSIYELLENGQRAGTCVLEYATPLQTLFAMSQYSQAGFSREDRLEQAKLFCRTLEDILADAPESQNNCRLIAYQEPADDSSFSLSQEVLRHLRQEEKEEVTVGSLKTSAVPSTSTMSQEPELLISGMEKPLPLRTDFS

## CN1CCCc2c3c(cccc3nn2C)-c2ccnc(n2)N[C@H]2C[C@@H](C1=O)N(c1ncnc3c1cnn3-c1ccc(F)cc1F)C2 [Example 4, (8S,11S)-10-[1-(2,4-difluorophenyl)pyrazolo[3,4-d]pyrimidin-4-yl]-13,18-dimethyl-5,7,10,13,18,19,26-heptazapentacyclo[15.6.1.1^2,6.1^8,11.0^20,24]hexacosa-1(23),2,4,6(26),17(24),19,21-heptaen-12-one]
[1]
  Clearance of human microsome: 0.9 L/h/kg
STING (IFN-β in hPBMC)
  IC50: 0.413 µM
[2]
  IC50: 0.0005 µM

## CN1CCCc2c3c(cccc3nn2C)-c2cncc(n2)N[C@H]2C[C@@H](C1=O)N(c1ncnc3c1cnn3-c1ccc(F)cc1F)C2 [Example 7, (8S,11S)-10-[1-(2,4-difluorophenyl)pyrazolo[3,4-d]pyrimidin-4-yl]-13,18-dimethyl-4,7,10,13,18,19,26-heptazapentacyclo[15.6.1.1^2,6.1^8,11.0^20,24]hexacosa-1(23),2,4,6(26),17(24),19,21-heptaen-12-one]
[1]
  Clearance of human microsome: 0.798 L/h/kg
STING (IFN-β in hPBMC)
  IC50: 0.325 µM
[2]
  IC50: 0.0004 µM

## COc1cc(F)ccc1-n1ncc2c(N3C[C@@H]4C[C@H]3C(=O)N(C)CCCc3c5c(cc(F)cc5nn3C)-c3ccnc(n3)O4)ncnc21 [Example 12, (8S,11S)-22-fluoro-10-[1-(4-fluoro-2-methoxy-phenyl)pyrazolo[3,4-d]pyrimidin-4-yl]-13,18-dimethyl-7-oxa-5,10,13,18,19,26-hexazapentacyclo[15.6.1.1^2,6.1^8,11.0^20,24]hexacosa-1(23),2(26),3,5,17(24),19,21-heptaen-12-one]
[1]
  Clearance of human microsome: 0.792 L/h/kg
STING (IFN-β in hPBMC)
  IC50: 1.41 µM
[2]
  IC50: 0.018 µM

## Cn1cnc(CN2CCCc3c4c(cccc4nn3C)-c3cccc(c3)O[C@H]3C[C@@H](C2=O)N(c2ncnc4c2cnn4-c2ccc(F)cc2F)C3)n1 [Example 16, (8S,11S)-10-[1-(2,4-difluorophenyl)pyrazolo[3,4-d]pyrimidin-4-yl]-18-methyl-13-[(1-methyl-1,2,4-triazol-3-yl)methyl]-7-oxa-10,13,18,19 tetrazapentacyclo[15.6.1.1^2,6.1^8,11.0^20,24]hexacosa-1(23),2(26),3,5,17(24),19,21-heptaen-12-one]
[1]
  Clearance of human microsome: 0.954 L/h/kg
STING (IFN-β in hPBMC)
  IC50: 0.384 µM
[2]
  IC50: 0.0031 µM

## Cn1nc2cccc3c2c1CCCN(CC1CC1)C(=O)[C@@H]1C[C@@H](CN1c1ncnc2c1cnn2-c1ccc(F)cc1F)Oc1cc-3ncn1 [Example 18, (8S,11S)-13-(cyclopropylmethyl)-10-[1-(2,4-difluorophenyl)pyrazolo[3,4-d]pyrimidin-4-yl]-18-methyl-7-oxa-3,5,10,13,18,19-hexazapentacyclo[15.6.1.1^2,6.1^8,11.0^20,24]hexacosa-1(23),2(26),3,5,17(24),19,21-heptaen-12-one]
[1]
  Clearance of human microsome: 0.744 L/h/kg
STING (IFN-β in hPBMC)
  IC50: 0.491 µM
[2]
  IC50: 0.0125 µM

## Cn1nc2cccc3c2c1CCCN(CC1CC1)C(=O)[C@@H]1C[C@@H](CN1c1ncnc2c1cnn2-c1ccc(F)cc1F)Oc1nccc-3n1 [Example 19, (8S,11S)-13-(cyclopropylmethyl)-10-[1-(2,4-difluorophenyl)pyrazolo[3,4-d]pyrimidin-4-yl]-18-methyl-7-oxa-5,10,13,18,19,26-hexazapentacyclo[15.6.1.1^2,6.1^8,11.0^20,24]hexacosa-1(23),2(26),3,5,17(24),19,21-heptaen-12-one]
[1]
  Clearance of human microsome: 0.6 L/h/kg
STING (IFN-β in hPBMC)
  IC50: 0.976 µM
[2]
  IC50: 0.0131 µM

## Cn1nc2cccc3c2c1CCCN(CCO)C(=O)[C@@H]1C[C@@H](CN1c1ncnc2c1cnn2-c1ccc(F)cc1F)Oc1cccc-3c1 [Example 22, (8S,11S)-10-[1-(2,4-difluorophenyl)pyrazolo[3,4-d]pyrimidin-4-yl]-13-(2-hydroxyethyl)-18-methyl-7-oxa-10,13,18,19-tetrazapentacyclo[15.6.1.1^2,6.1^8,11.0^20,24]hexacosa-1(23),2(26),3,5,17(24),19,21-heptaen-12-one]
[1]
  Clearance of human microsome: 0.93 L/h/kg
STING (IFN-β in hPBMC)
  IC50: 0.264 µM
[2]
  IC50: 0.0002 µM

## Cn1nc2cccc3c2c1CCCN(CCCN1CCN(S(C)(=O)=O)CC1)C(=O)[C@@H]1C[C@@H](CN1c1ncnc2c1cnn2-c1ccc(F)cc1F)Oc1cccc-3c1 [Example 35, (8S,11S)-10-[1-(2,4-difluorophenyl)pyrazolo[3,4-d]pyrimidin-4-yl]-18-methyl-13-[3-(4-methylsulfonylpiperazin-1-yl)propyl]-7-oxa-10,13,18,19-tetrazapentacyclo[15.6.1.1^2,6.1^8,11.0^20,24]hexacosa-1(23),2(26),3,5,17(24),19,21-heptaen-12-one]
STING (IFN-β in hPBMC)
  IC50: 0.183 µM
[2]
  IC50: 0.0002 µM

## Cn1nc2cccc3c2c1CCCN(CCCn1ccnc1)C(=O)[C@@H]1C[C@@H](CN1c1ncnc2c1cnn2-c1ccc(F)cc1F)Oc1cccc-3c1 [Example 38, (8S,11S)-10-[1-(2,4-difluorophenyl)pyrazolo[3,4-d]pyrimidin-4-yl]-13-(3-imidazol-1-ylpropyl)-18-methyl-7-oxa-10,13,18,19-tetrazapentacyclo[15.6.1.1^2,6.1^8,11.0^20,24]hexacosa-1(23),2(26),3,5,17(24),19,21-heptaen-12-one]
STING (IFN-β in hPBMC)
  IC50: 0.465 µM
[2]
  IC50: 0.0009 µM

## Cn1nc2cccc3c2c1CCCN(CCCc1ccccc1)C(=O)[C@@H]1C[C@@H](CN1c1ncnc2c1cnn2-c1ccc(F)cc1F)Oc1cccc-3n1 [Example 41, (8S,11S)-10-[1-(2,4-difluorophenyl)pyrazolo[3,4-d]pyrimidin-4-yl]-18-methyl-13-(3-phenylpropyl)-7-oxa-10,13,18,19,26-pentazapentacyclo[15.6.1.1^2,6.1^8,11.0^20,24]hexacosa-1(23),2(26),3,5,17(24),19,21-heptaen-12-one]
STING (IFN-β in hPBMC)
  IC50: 0.048 µM
[2]
  IC50: 0.0021 µM

## Cn1nc2cccc3c2c1CCCN(CCCO)C(=O)[C@@H]1C[C@@H](CN1c1ncnc2c1cnn2-c1ccc(F)cc1F)Nc1cccc-3n1 [Example 42, (8S,11S)-10-[1-(2,4-difluorophenyl)pyrazolo[3,4-d]pyrimidin-4-yl]-13-(3-hydroxypropyl)-18-methyl-7,10,13,18,19,26-hexazapentacyclo[15.6.1.1^2,6.1^8,11.0^20,24]hexacosa-1(23),2(26),3,5,17(24),19,21-heptaen-12-one]
[1]
  Clearance of human microsome: 0.798 L/h/kg
[2]
  IC50: 0.0053 µM

## COc1cc(F)ccc1-n1ncc2c(N3C[C@@H]4C[C@H]3C(=O)N(CCCN3CCOCC3)CCCc3c5c(cccc5nn3C)-c3cc(C)cc(n3)N4)ncnc21 [Example 46, (8S,11S)-10-[1-(4-fluoro-2-methoxy-phenyl)pyrazolo[3,4-d]pyrimidin-4-yl]-4,18-dimethyl-13-(3-morpholinopropyl)-7,10,13,18,19,26-hexazapentacyclo[15.6.1.1^2,6.1^8,11.0^20,24]hexacosa-1(23),2(26),3,5,17(24),19,21-heptaen-12-one]
[1]
  Clearance of human microsome: 0.894 L/h/kg
[2]
  IC50: 0.0076 µM
